Laboratory results from ChEMBL document CHEMBL1201862, “PubChem BioAssay data set” (2004).
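Test compounds were applied to cells in 96-well plates for 48 hours at 5 doses. At the GI50, growth is halved.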 Activity calls are given as the source filed them. Rule as the data show it: active = GI50 up to about 1.1 µM and inactive = higher.

What was measured:
Experiment in all cases: NCI anticancer screen, dose series, 48 h
COLO 205 = tested on: COLO 205
DLD-1 = tested on: DLD-1
DMS-114 = tested on: DMS-114
DMS-273 = tested on: DMS-273
HCC 2998 = tested on: HCC 2998
HOP-18 = tested on: HOP-18
KM12 = tested on: KM12
LOX IMVI = tested on: LOX IMVI
M19-MEL = tested on: M19-MEL
MOLT-4 = tested on: MOLT-4
NCI-H23 = tested on: NCI-H23
NCI/ADR-RES = tested on: NCI/ADR-RES
SK-MEL-28 = tested on: SK-MEL-28
SNB-78 = tested on: SNB-78
U-251 = tested on: U-251
XF498 = tested on: XF498
LXFL 529 = tested on: LXFL 529
Hs-578T = tested on: Hs-578T
MDA-MB-231 = tested on: MDA-MB-231
MDA-MB-435 = tested on: MDA-MB-435

Measured: GI50

O=C1ON(Cc2ccccc2)C(c2ccccc2)N1c1ccccc1 (stereo not drawn)
inactive: COLO 205 > 100 µM | DLD-1 > 100 µM | DMS-114 > 100 µM | DMS-273 > 100 µM | HCC 2998 > 100 µM | HOP-18 > 100 µM | KM12 > 100 µM | LOX IMVI > 100 µM | M19-MEL > 100 µM | MOLT-4 71.6 µM | NCI-H23 > 100 µM | NCI/ADR-RES > 100 µM | SK-MEL-28 > 100 µM | SNB-78 > 100 µM | U-251 > 100 µM | XF498 > 100 µM

O=NN1C(c2ccccc2)CCCC1c1ccccc1 (stereo not drawn)
inactive: COLO 205 50.8 µM | DLD-1 > 90.6 µM | DMS-114 28.6 µM | DMS-273 39.8 µM | HCC 2998 80.4 µM | HOP-18 > 77.8 µM | KM12 > 89.9 µM | LOX IMVI 74.8 µM | M19-MEL 85.9 µM | MOLT-4 27.9 µM | NCI-H23 42 µM | NCI/ADR-RES 51.1 µM | SK-MEL-28 > 100 µM | SNB-78 46.2 µM | U-251 75.5 µM | XF498 31.7 µM

C=CCN1/C(=C(\C#N)c2nc3ccccc3[nH]2)Sc2c1nc[nH]c2=O
inactive: COLO 205 > 100 µM | DLD-1 > 100 µM | DMS-114 > 100 µM | DMS-273 > 100 µM | HCC 2998 > 100 µM | KM12 > 100 µM | LXFL 529 > 100 µM | M19-MEL > 100 µM | MOLT-4 > 100 µM | NCI-H23 > 100 µM | SK-MEL-28 > 100 µM | SNB-78 > 100 µM | U-251 80.5 µM | XF498 > 100 µM

CC(=O)OCC1OC(OCCCCCCO)C(OC(C)=O)C(OC(C)=O)C1OC(C)=O (stereo not drawn)
inactive: HCC 2998 > 100 µM | Hs-578T > 100 µM | KM12 > 100 µM | LOX IMVI > 100 µM | MDA-MB-231 > 100 µM | MDA-MB-435 > 100 µM | MOLT-4 > 100 µM | NCI-H23 > 100 µM | NCI/ADR-RES > 100 µM | SK-MEL-28 > 100 µM | U-251 > 100 µM

O=C1C(Cl)N(c2cccc(Cl)c2)C1c1c[nH]c2ccccc12 (stereo not drawn)
inactive: COLO 205 > 100 µM | DMS-114 > 100 µM | KM12 > 100 µM | LXFL 529 > 100 µM | M19-MEL > 100 µM | MOLT-4 > 100 µM | NCI-H23 > 100 µM | SK-MEL-28 > 100 µM | U-251 > 100 µM | XF498 > 100 µM

O=C(CC(C(=O)c1cccs1)c1ccc2c(c1)OCO2)c1ccc(Br)cc1 (stereo not drawn)
inactive: COLO 205 > 100 µM | HCC 2998 > 100 µM | KM12 > 100 µM | MDA-MB-231 > 100 µM | MDA-MB-435 > 100 µM | MOLT-4 > 100 µM | NCI-H23 > 100 µM | NCI/ADR-RES > 100 µM | SK-MEL-28 > 100 µM | U-251 > 100 µM

COc1ccc2c(c1)CCN=C2Cc1cc(OC)c(OC)cc1CCCl
inactive: COLO 205 58.7 µM | HCC 2998 30.5 µM | Hs-578T 22.1 µM | KM12 33.3 µM | LOX IMVI 31.9 µM | MDA-MB-231 32.1 µM | MDA-MB-435 52 µM | MOLT-4 54.8 µM | NCI-H23 52 µM | NCI/ADR-RES > 100 µM | SK-MEL-28 66.2 µM | U-251 86.7 µM

O=C1C=CC2=[N+]([O-])C(c3ccccc3)(c3ccccc3)/C(=N\c3ccccc3)C2=C1
inactive: DLD-1 1.53 µM | DMS-114 1.85 µM | DMS-273 2.38 µM | HCC 2998 6.3 µM | HOP-18 2.92 µM | LOX IMVI 1.8 µM | LXFL 529 1.78 µM | M19-MEL 1.77 µM | MOLT-4 1.27 µM | NCI-H23 2.38 µM | SNB-78 3.74 µM | U-251 2.5 µM | XF498 1.31 µM

N#CC1(C#N)C(=O)c2ccncc2C1=O
inactive: COLO 205 > 100 µM | HCC 2998 > 100 µM | Hs-578T > 100 µM | KM12 > 100 µM | MDA-MB-231 > 100 µM | MDA-MB-435 > 100 µM | NCI-H23 > 100 µM | NCI/ADR-RES 63.7 µM | SK-MEL-28 > 100 µM | U-251 > 100 µM

CN1NC(c2ccccc2)=C(C#N)C(=O)CC1c1ccc(Br)cc1 (stereo not drawn)
inactive: DLD-1 26.1 µM | HCC 2998 34.5 µM | HOP-18 17.9 µM | KM12 25.2 µM | LOX IMVI 35.4 µM | LXFL 529 35.7 µM | NCI-H23 56.4 µM | SK-MEL-28 48 µM | SNB-78 48.8 µM | U-251 > 10 µM | XF498 28.6 µM

O=C1NC2=C(CCCC/C2=N\O)C12CCCCC2
inactive: DLD-1 > 100 µM | DMS-114 > 100 µM | HCC 2998 > 100 µM | KM12 > 100 µM | LOX IMVI > 100 µM | LXFL 529 > 100 µM | M19-MEL > 100 µM | MOLT-4 57.8 µM | NCI-H23 > 100 µM | SK-MEL-28 > 100 µM | SNB-78 > 100 µM | U-251 > 100 µM | XF498 > 100 µM

COC(=O)C12CC3CC(CC(C(=O)O)(C3)C1)C2
inactive: DMS-273 > 100 µM | HCC 2998 > 100 µM | HOP-18 > 100 µM | KM12 > 100 µM | LOX IMVI > 100 µM | LXFL 529 > 100 µM | M19-MEL > 100 µM | MOLT-4 > 100 µM | NCI-H23 > 100 µM | SK-MEL-28 > 100 µM | SNB-78 > 100 µM | U-251 > 100 µM | XF498 > 100 µM

C=C(C)[C@@H]1CCC2=C[C@H](CC(C)=CC3=CC(C)=C(O3)[C@@H]1OC)OC2=O
inactive: COLO 205 > 100 µM | HCC 2998 > 100 µM | Hs-578T 33.6 µM | KM12 > 100 µM | MDA-MB-231 29.5 µM | MDA-MB-435 > 100 µM | MOLT-4 > 100 µM | NCI/ADR-RES 90.4 µM | SK-MEL-28 > 100 µM | U-251 33.1 µM

CCOC(=O)c1ccc(N(CCOS(=O)(=O)c2ccc(C)cc2)CCOS(=O)(=O)c2ccc(C)cc2)cc1
inactive: COLO 205 > 100 µM | HCC 2998 > 100 µM | Hs-578T > 100 µM | KM12 > 100 µM | LOX IMVI > 100 µM | MDA-MB-231 27.2 µM | MDA-MB-435 > 100 µM | MOLT-4 2.7 µM | NCI-H23 > 100 µM | NCI/ADR-RES > 100 µM | U-251 6.76 µM

CCOC(=O)CC(=O)CSc1c(-c2ccccc2)c(=O)n(-c2ccccc2)c(=S)n1-c1ccccc1
inactive: COLO 205 > 100 µM | HCC 2998 > 100 µM | Hs-578T > 100 µM | KM12 > 100 µM | LOX IMVI > 100 µM | MDA-MB-231 > 100 µM | MDA-MB-435 > 100 µM | MOLT-4 38.9 µM | NCI-H23 > 100 µM | NCI/ADR-RES > 100 µM | SK-MEL-28 > 100 µM | U-251 > 100 µM

O=S(=O)(O)c1ccc(/N=N\c2ccc(/N=N/c3ccc(/C=C/c4ccc(/N=[N+](\[O-])c5ccc(/C=C/c6ccc(/N=N/c7ccc(/N=N/c8ccc(S(=O)(=O)O)cc8)c8ccccc78)cc6S(=O)(=O)O)c(S(=O)(=O)O)c5)cc4S(=O)(=O)O)c(S(=O)(=O)O)c3)c3ccccc23)cc1
inactive: COLO 205 > 100 µM | DLD-1 > 100 µM | DMS-114 > 100 µM | DMS-273 > 100 µM | HCC 2998 > 100 µM | HOP-18 30.5 µM | KM12 > 100 µM | LOX IMVI > 100 µM | M19-MEL > 100 µM | MOLT-4 > 100 µM | NCI-H23 > 100 µM | NCI/ADR-RES > 100 µM | SK-MEL-28 > 100 µM | SNB-78 > 100 µM | U-251 > 91.4 µM | XF498 > 66.8 µM
